Laboratory results taken from patent US12435051B2, “Dual modulator of mGluR5 and 5-HT2A receptor, and use thereof” (Vivozon Inc., priority 2020, dated 2025).

Molecular target: T1, human 5-HT2AR (Homo sapiens, UniProt P28223)
T1 construct: expressed in transfected cells; host or cells: HEK293
Assay: HTRF-based IP1 accumulation assay (5-HT2AR antagonistic effect)
Format: cell-based
Conditions: HEK293 cells overexpressing human 5-HT2AR; serotonin at EC80
Description: The 5-HT2AR antagonistic effect of the test compounds was confirmed by measuring the production amount of IP1 using the HEK293 cell line permanently overexpressing the human 5-HT2AR. The test compounds were dissolved in 100% DMSO to a final concentration of 10 mM. The starting concentration of 10 μM was prepared from the stock solution, followed by serial dilutions to prepare working solutions in a buffer containing lithium chloride (LiCl). The cells and compounds prepared in the test buffer were placed in a 96-well plate and incubated at room temperature for 10 minutes. Serotonin of EC80 concentration was added, followed by incubation at 37° C. for 30 minutes in a light-shielding state. To measure IP1 accumulation in cells, JP1-d2 acceptor and IP1-Cryptate donor-which are HTRF-based substances for fluorescence signals-were added and incubated for 1 hour at room temperature in a light-shielded state. The fluorescent emission signals of acceptor and donor were detected, and HTRF ratio values were substracted by mean value of serotonin control. The percentage of activation was calculated by normalization of the serotonin control (0%) and IP1 control (100%). The IC50 values of the test compounds are represented in Table 1. (+: 1,000-2,000 nM, ++: 500-1,000 nM, +++: 100-500 nM, ++++: less than 100 nM).

T1 sequence (P28223 whole entry): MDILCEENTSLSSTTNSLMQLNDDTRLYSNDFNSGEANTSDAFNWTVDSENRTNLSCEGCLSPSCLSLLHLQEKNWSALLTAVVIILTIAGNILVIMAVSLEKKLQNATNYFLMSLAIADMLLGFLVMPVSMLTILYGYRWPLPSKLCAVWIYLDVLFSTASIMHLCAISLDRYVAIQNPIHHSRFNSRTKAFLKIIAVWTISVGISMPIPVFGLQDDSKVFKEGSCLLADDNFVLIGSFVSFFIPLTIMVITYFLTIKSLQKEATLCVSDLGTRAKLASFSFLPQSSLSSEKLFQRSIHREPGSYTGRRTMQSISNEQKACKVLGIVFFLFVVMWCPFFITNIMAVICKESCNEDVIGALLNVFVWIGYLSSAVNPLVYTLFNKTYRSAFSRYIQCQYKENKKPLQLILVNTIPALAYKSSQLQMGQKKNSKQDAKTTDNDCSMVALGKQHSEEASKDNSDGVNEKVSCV

SMILES	IC50 [nM]
CC1(CNC(=O)c2ccc(C#Cc3ccccc3F)cc2)CCC1 [Example 105, 4-((2-fluorophenyl)ethynyl)-N-((1-methylcyclobutyl)methyl)benzamide]	500 to 1000
CC1(CNC(=O)c2ccc(C#Cc3ccc(F)cc3F)cc2)CCCC1 [Example 108, 4-((2,4-difluorophenyl)ethynyl)-N-((1-methylcyclopentyl)methyl)benzamide]	100 to 500
O=C(NC[C@H]1CCOC1)c1ccc(C#Cc2ccc(F)cc2F)cc1 [Example 109, (R)-4-((2,4-difluorophenyl)ethynyl)-N-((tetrahydrofuran-3-yl)methyl)benzamide]	100 to 500
O=C(NC[C@H]1CCCO1)c1ccc(C#Cc2ccc(F)cc2)cc1 [Example 110, (R)-4-((4-fluorophenyl)ethynyl)-N-((tetrahydrofuran-2-yl)methyl)benzamide]	100 to 500
O=C(NC[C@@H]1CCCO1)c1ccc(C#Cc2ccc(F)cc2)cc1 [Example 111, (S)-4-((4-fluorophenyl)ethynyl)-N-((tetrahydrofuran-2-yl)methyl)benzamide]	100 to 500
CCC1(CNC(=O)c2ccc(C#Cc3ccc(F)cc3)cc2)COC1 [Example 112, N-((3-ethyloxetan-3-yl)methyl)-4-((4-fluorophenyl)ethynyl)benzamide]	100 to 500

The remaining lines, values ahead:

IC50 [nM]	SMILES
100 to 500	O=C(NCC1(NC2CC2)CCCCCC1)c1ccc(C#Cc2ccccn2)cc1 [Example 1, N-((1-(cyclopropylamino)cycloheptyl)methyl)-4-(pyridin-2-ylethynyl)benzamide]
< 100	O=C(NCC1(NC2CC2)CCCC1)c1ccc(C#Cc2ccncc2)cc1 [Example 2, N-((1-(cyclopropylamino)cyclopentyl)methyl)-4-(pyridin-4-ylethynyl)benzamide]
100 to 500	O=C(NCC1(NC2CC2)CCCC1)c1ccc(C#Cc2ccc(F)cn2)cc1 [Example 3, N-((1-(cyclopropylamino)cyclopentyl)methyl)-4-((5-fluoropyridin-2-yl)ethynyl)benzamide]
100 to 500	CC1(CNC(=O)c2ccc(C#Cc3ccc(F)cc3)cc2)CCC1 [Example 106, 4-((4-fluorophenyl)ethynyl)-N-((1-methylcyclobutyl)methyl)benzamide]
< 100	CC1(CNC(=O)c2ccc(C#Cc3ccc(F)cc3F)cc2)CCC1 [Example 107, 4-((2,4-difluorophenyl)ethynyl)-N-((1-methylcyclobutyl)methyl)benzamide]

System: physical (tactile) allodynia in spinal nerve ligation model
Assay: Analgesic efficacy experiment using animal model (Chung model, spinal nerve ligation)
Format: in vivo, Sprague-Dawley rats
Conditions: rat, oral, 12.5 mpk, 1 h; read-out: % reversal (1 h)
Description: The Chung model (spinal nerve ligation model) is a representative animal model to study neuropathic pain and is widely accepted as a gold standard for an animal pain model by global pharmaceutical companies around the world.
In this experiment, male Sprague-Dawley rats (100-120 g) purchased from Koatech (Pyeongtaek-si, Gyeonggi-do) were used. Rats were kept in a room maintained at constant temperature and humidity with a 12 hour light-dark cycle. Rats were allowed to eat and drink freely during the experiment.
For the Chung surgery, rats were anesthetized by isoflurane inhalation and the left lumbar nerves L5 and L6 were tightly tied with a suture thread (6-0 silk thread) at the end of the dorsal ganglion and at a front of an entrance to the sciatic nerve according to the article (Kim and Chung (1992), Pain 50(3):355-63). After suturing the incision, the rats were recovered for 2 weeks in the controlled maintenance room to induce physical allodynia in the left hind paw of the rat. To measure physical (tactile) allodynia, the rats were placed in a cage with a wire mesh on the bottom. Stimuli of increasing intensity (using the von Frey filaments in a range of 0.41 to 15.8 g) were placed on the plantar surface on the side of the nerve injury. The stimulus intensity at which the pain response (abrupt lifting, licking or sucking of the foot) was induced was recorded while applying gradual increment of stimuli. As described in the study of Chaplan et al. (1994) (Chaplan et al. (1994) J. Neurosci. Methods 53(1):55-63), the paw withdrawal threshold (PWT) was determined by increasing or decreasing continuous stimulus intensity, and the result was analyzed by applying Dixon's up-down method. Only rats showing no behavior dysfunction (e.g., feet dragging or dropping) were selected and included in the study, and the PWT of the rats used was 3.16 g or less.
After measuring the degree of basic reaction before drug injection, each compound and solvent were injected by oral administration (12.5-100 mg/kg), and the measurement was repeated at regular time intervals (60 and 120 minutes) after the drug was injected.
The experimenter conducted the PWT measurement in a blind condition not knowing which rat was administered with which drug. The control group was administered with gabapentin (65 mg/kg, intraperitoneal administration), and was randomly mixed during the measurement. Statistical analysis was performed on the measured pain response threshold by calculating the reversal rate (% reversal) from pain in Equation 1 below. […] Pain reversal rate (% reversal)=[(PWT after drug administration)−(PWT before drug administration)]*100/[(15 g, Estimated PWT in normal animals)−(PWT before drug administration)] [Equation 1]
The PWT used in this time is a value obtained by multiplying the gram, the unit of “force” measure, by 10,000, and taking the logarithm, which is a method generally used in academia.
Each experiment consisted of the compound group, the solvent group of the compound and the gabapentin (GBP) group as positive control group. As solvent of the compound, 0.5% HPMC (hydroxypropylmethyl cellulose) was used.

SMILES	inhibition in vivo at 12.5 mg/kg [%]
O=C(NCC1(NC2CC2)CCCC1)c1ccc(C#Cc2ccncc2)cc1 [Example 2, N-((1-(cyclopropylamino)cyclopentyl)methyl)-4-(pyridin-4-ylethynyl)benzamide]	3.91

Same assay, conditions: rat, oral, 12.5 mpk, 2 h; read-out: % reversal (2 h)

SMILES	inhibition in vivo at 12.5 mg/kg [%]
O=C(NCC1(NC2CC2)CCCC1)c1ccc(C#Cc2ccncc2)cc1 [Example 2, N-((1-(cyclopropylamino)cyclopentyl)methyl)-4-(pyridin-4-ylethynyl)benzamide]	28.1

Same assay, conditions: rat, oral, 50 mpk, 1 h; read-out: % reversal (1 h)

SMILES	inhibition in vivo at 50 mg/kg [%]
O=C(NCC1(NC2CC2)CCCC1)c1ccc(C#Cc2ccc(F)cn2)cc1 [Example 3, N-((1-(cyclopropylamino)cyclopentyl)methyl)-4-((5-fluoropyridin-2-yl)ethynyl)benzamide]	59

Same assay, conditions: rat, oral, 50 mpk, 2 h; read-out: % reversal (2 h)

SMILES	inhibition in vivo at 50 mg/kg [%]
O=C(NCC1(NC2CC2)CCCC1)c1ccc(C#Cc2ccc(F)cn2)cc1 [Example 3, N-((1-(cyclopropylamino)cyclopentyl)methyl)-4-((5-fluoropyridin-2-yl)ethynyl)benzamide]	87.9

Same assay, conditions: rat, oral, 100 mpk, 1 h; read-out: % reversal (1 h)

SMILES	inhibition in vivo at 100 mg/kg [%]
O=C(NCC1(NC2CC2)CCCCCC1)c1ccc(C#Cc2ccccn2)cc1 [Example 1, N-((1-(cyclopropylamino)cycloheptyl)methyl)-4-(pyridin-2-ylethynyl)benzamide]	60.5

Same assay, conditions: rat, oral, 100 mpk, 2 h; read-out: % reversal (2 h)

SMILES	inhibition in vivo at 100 mg/kg [%]
O=C(NCC1(NC2CC2)CCCCCC1)c1ccc(C#Cc2ccccn2)cc1 [Example 1, N-((1-(cyclopropylamino)cycloheptyl)methyl)-4-(pyridin-2-ylethynyl)benzamide]	85.7

Molecular target: T2, mGluR5 (Homo sapiens, UniProt P41594)
T2 construct: expressed in transfected cells; host or cells: HEK293
T2 sequence (P41594 21-1212): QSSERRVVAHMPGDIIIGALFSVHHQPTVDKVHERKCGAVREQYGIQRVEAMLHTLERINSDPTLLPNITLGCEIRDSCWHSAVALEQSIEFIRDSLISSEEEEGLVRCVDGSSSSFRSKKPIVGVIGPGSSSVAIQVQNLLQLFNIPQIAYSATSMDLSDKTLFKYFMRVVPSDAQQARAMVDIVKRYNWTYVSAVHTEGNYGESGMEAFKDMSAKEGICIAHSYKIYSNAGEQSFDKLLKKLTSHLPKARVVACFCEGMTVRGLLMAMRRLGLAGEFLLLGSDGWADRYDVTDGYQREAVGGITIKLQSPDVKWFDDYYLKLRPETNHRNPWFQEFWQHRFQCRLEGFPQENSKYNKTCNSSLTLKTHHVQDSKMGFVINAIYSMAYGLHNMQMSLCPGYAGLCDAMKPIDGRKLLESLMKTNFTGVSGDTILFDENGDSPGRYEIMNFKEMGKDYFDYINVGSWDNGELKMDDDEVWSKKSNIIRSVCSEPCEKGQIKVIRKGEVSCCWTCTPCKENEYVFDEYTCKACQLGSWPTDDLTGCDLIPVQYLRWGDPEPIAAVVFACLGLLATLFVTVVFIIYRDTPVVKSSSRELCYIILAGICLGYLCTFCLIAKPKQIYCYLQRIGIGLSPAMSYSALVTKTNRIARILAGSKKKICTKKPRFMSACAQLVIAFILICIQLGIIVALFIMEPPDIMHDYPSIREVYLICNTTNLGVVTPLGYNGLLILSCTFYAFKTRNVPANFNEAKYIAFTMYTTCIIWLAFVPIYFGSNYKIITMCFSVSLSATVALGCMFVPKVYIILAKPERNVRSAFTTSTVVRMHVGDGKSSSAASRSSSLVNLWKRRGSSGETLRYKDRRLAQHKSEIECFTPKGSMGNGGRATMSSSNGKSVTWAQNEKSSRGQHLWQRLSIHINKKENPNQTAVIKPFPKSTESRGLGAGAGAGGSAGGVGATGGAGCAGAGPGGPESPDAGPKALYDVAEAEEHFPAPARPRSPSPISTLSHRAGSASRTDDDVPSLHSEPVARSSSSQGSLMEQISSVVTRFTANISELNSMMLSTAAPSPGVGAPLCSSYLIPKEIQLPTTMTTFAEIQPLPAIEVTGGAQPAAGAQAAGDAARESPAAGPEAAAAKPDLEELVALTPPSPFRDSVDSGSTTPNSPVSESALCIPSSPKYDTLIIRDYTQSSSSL
Assay: Fluorescence-based Ca2+ mobilization assay
Format: cell-based
Conditions: HEK293 cells overexpressing mGluR5; L-glutamate at EC80
Description: In order to measure the activity on the mGluR5, an experiment was carried out to check the change in the intracellular Ca^2+ level using the HEK293 cell line permanently overexpressing the mGluR5. The cells in the cell culture medium were aliquoted into a 384-well plate coated with poly-D-lysine and cultured in a 37° C. incubator supplied with 5% CO2. The next day, the medium was removed and a dye loading buffer—in which a reagent capable of measuring Ca^2+ was dissolved—was added, and then incubated at 37° C. for 60 minutes. The test compounds were dissolved in 100% DMSO at a final concentration of 10 mM to make a stock solution. The starting concentration of […] was prepared from the stock solution, followed by serial dilutions to prepare working solutions (test compound working solutions). The test compound working solutions were added to the cells that were incubated in the dye loading buffer, which were maintained for 30 minutes at room temperature in a light-shielding state before measurement. The Ca^2+ level change induced by L-glutamate at EC80 concentration was measured for 2 minutes using FLIPR Tetra (MDS Analytical Technologies). The fluorescent Ca^2+ signal values in the presence of the test compounds were normalized to the fluorescent signal elicited by […] concentration of L-glutamate as 100% and that elicited by vehicle as 0% to estimate % inhibition of the test compounds. The efficacy of the test compounds was calculated as IC50 values and represented in Table 1. (+: 1,000-2,000 nM, ++: 500-1,000 nM, +++: 100-500 nM, ++++: less than 100 nM).

SMILES	IC50 [nM]
CC1(CNC(=O)c2ccc(C#Cc3ccccc3F)cc2)CCC1 [Example 105, 4-((2-fluorophenyl)ethynyl)-N-((1-methylcyclobutyl)methyl)benzamide]	< 100
CC1(CNC(=O)c2ccc(C#Cc3ccc(F)cc3F)cc2)CCCC1 [Example 108, 4-((2,4-difluorophenyl)ethynyl)-N-((1-methylcyclopentyl)methyl)benzamide]	< 100
O=C(NC[C@H]1CCOC1)c1ccc(C#Cc2ccc(F)cc2F)cc1 [Example 109, (R)-4-((2,4-difluorophenyl)ethynyl)-N-((tetrahydrofuran-3-yl)methyl)benzamide]	500 to 1000
O=C(NC[C@H]1CCCO1)c1ccc(C#Cc2ccc(F)cc2)cc1 [Example 110, (R)-4-((4-fluorophenyl)ethynyl)-N-((tetrahydrofuran-2-yl)methyl)benzamide]	< 100
O=C(NC[C@@H]1CCCO1)c1ccc(C#Cc2ccc(F)cc2)cc1 [Example 111, (S)-4-((4-fluorophenyl)ethynyl)-N-((tetrahydrofuran-2-yl)methyl)benzamide]	100 to 500
CCC1(CNC(=O)c2ccc(C#Cc3ccc(F)cc3)cc2)COC1 [Example 112, N-((3-ethyloxetan-3-yl)methyl)-4-((4-fluorophenyl)ethynyl)benzamide]	100 to 500

Results, then the molecule that gave them:

IC50 [nM]	SMILES
1000 to 2000	O=C(NCC1(NC2CC2)CCCCCC1)c1ccc(C#Cc2ccccn2)cc1 [Example 1, N-((1-(cyclopropylamino)cycloheptyl)methyl)-4-(pyridin-2-ylethynyl)benzamide]
500 to 1000	O=C(NCC1(NC2CC2)CCCC1)c1ccc(C#Cc2ccncc2)cc1 [Example 2, N-((1-(cyclopropylamino)cyclopentyl)methyl)-4-(pyridin-4-ylethynyl)benzamide]
500 to 1000	O=C(NCC1(NC2CC2)CCCC1)c1ccc(C#Cc2ccc(F)cn2)cc1 [Example 3, N-((1-(cyclopropylamino)cyclopentyl)methyl)-4-((5-fluoropyridin-2-yl)ethynyl)benzamide]
< 100	CC1(CNC(=O)c2ccc(C#Cc3ccc(F)cc3)cc2)CCC1 [Example 106, 4-((4-fluorophenyl)ethynyl)-N-((1-methylcyclobutyl)methyl)benzamide]
< 100	CC1(CNC(=O)c2ccc(C#Cc3ccc(F)cc3F)cc2)CCC1 [Example 107, 4-((2,4-difluorophenyl)ethynyl)-N-((1-methylcyclobutyl)methyl)benzamide]
